Measured values taken from paper PMC6981391, “The Selective Class IIa Histone Deacetylase Inhibitor TMP195 Resensitizes ABCB1- and ABCG2-Overexpressing Multidrug-Resistant Cancer Cells to Cytotoxic Anticancer Drugs” (International Journal of Molecular Sciences, 2019).

Key:
ABCG2 = target: T1, ABCG2 (Homo sapiens, UniProt Q9UNQ0); experiment: biochemical
T1 sequence (Q9UNQ0 1-655): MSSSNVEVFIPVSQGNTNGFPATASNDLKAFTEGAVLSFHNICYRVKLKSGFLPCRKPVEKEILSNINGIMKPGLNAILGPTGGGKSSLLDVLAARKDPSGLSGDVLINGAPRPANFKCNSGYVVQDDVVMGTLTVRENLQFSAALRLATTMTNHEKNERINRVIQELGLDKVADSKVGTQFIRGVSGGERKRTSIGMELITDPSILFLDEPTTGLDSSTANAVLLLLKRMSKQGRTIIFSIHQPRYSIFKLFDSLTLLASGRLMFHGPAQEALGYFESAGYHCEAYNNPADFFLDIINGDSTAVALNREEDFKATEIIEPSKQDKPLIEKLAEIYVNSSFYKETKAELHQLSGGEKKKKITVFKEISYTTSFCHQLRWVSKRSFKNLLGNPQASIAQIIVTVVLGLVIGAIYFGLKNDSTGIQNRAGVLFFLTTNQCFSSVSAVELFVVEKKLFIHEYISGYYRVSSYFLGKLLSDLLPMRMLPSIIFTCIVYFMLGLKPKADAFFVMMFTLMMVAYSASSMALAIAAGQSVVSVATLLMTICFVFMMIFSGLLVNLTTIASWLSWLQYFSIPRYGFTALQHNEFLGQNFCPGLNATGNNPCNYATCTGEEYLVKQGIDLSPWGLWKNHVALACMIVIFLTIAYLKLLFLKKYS

ABCB1 = target: T2, ABCB1 (Homo sapiens, UniProt P08183); experiment: stimulation of vanadate-sensitive ATPase activity in membrane vesicles (endpoint Pi assay); also inhibits calcein-AM efflux in MDR19-HEK293 and KB-V-1 cells; format: biochemical
T2 construct: membrane vesicles from High-Five insect cells infected with recombinant baculovirus containing ABCB1
T2 sequence (P08183 whole entry): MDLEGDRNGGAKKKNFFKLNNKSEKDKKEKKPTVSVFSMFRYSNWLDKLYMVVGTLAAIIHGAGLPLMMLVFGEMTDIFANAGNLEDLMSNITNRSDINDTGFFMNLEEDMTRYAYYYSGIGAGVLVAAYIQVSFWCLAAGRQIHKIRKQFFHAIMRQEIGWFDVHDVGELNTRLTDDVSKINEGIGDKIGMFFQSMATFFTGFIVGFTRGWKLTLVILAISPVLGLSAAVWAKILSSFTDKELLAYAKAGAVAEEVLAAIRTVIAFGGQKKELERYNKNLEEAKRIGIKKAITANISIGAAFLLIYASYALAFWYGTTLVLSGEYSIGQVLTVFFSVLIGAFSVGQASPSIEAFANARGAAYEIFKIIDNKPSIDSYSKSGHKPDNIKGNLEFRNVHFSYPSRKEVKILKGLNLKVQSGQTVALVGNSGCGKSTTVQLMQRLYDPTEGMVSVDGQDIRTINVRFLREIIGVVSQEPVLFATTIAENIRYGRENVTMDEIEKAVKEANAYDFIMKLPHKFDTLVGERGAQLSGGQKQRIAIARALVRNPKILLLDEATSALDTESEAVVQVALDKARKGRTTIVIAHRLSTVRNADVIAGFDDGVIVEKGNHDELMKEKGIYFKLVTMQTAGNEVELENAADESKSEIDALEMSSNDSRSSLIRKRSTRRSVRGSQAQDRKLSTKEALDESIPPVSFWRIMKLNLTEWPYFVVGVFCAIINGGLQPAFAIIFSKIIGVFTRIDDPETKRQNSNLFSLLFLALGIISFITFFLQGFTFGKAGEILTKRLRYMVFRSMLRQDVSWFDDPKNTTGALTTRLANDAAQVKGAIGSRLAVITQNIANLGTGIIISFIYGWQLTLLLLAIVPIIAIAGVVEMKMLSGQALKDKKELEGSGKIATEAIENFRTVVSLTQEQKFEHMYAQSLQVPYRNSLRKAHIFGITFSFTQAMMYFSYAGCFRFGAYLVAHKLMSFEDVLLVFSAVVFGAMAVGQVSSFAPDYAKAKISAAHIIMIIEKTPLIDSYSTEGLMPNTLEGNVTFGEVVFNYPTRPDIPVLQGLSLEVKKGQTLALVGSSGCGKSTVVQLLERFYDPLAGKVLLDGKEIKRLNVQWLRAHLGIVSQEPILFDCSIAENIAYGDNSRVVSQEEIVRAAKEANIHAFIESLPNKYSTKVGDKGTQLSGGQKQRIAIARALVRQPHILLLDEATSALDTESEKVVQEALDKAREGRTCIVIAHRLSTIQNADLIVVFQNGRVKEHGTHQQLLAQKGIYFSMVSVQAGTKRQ

CC(C)(CNC(=O)c1cccc(-c2noc(C(F)(F)F)n2)c1)c1coc(-c2ccccc2)n1 [TMP195] gave an EC50 (ABCG2) of ~0.4 µM and an EC50 (ABCB1) of ~2 µM.
